Reference: publication PMC9953660, “Using ΔK280 TauRD Folding Reporter Cells to Screen TRKB Agonists as Alzheimer’s Disease Treatment Strategy” (Biomolecules, 2023)

Assays:
[1] = molecular target: T1, E. coli-expressed ΔK280 TauRD protein (Homo sapiens, UniProt P10636, DEL597-597); experiment: Thioflavin T fluorescence ΔK280 TauRD aggregation assay; assay type: biochemical; conditions: TauRD protein 20 μM, 48 h at 37 °C; read-out: EC50 inhibiting ΔK280 TauRD aggregation
T1 construct: TauRD (Q^244-E^372 of Tau, NP_005901) aggregation; N-terminal Met (N); made in house; host or cells: E. coli
Procedure: The anti-aggregation activity of congo red (positive control) and ZN/VB compounds (5–20 μM) was assessed using E. coli-expressed ΔK280 TauRD protein [33] and thioflavin T (Sigma-Aldrich) fluorescence assay. The trend of ΔK280 TauRD amyloid aggregate formation depicted with enhanced and red-shifted fluorescence was recorded by a FLx800 microplate fluorescence reader (BioTek Instruments), where the procedure was previously reported in detail.

[2] = system: ΔK280 TauRD-DsRed SH-SY5Y cells; experiment: High-content neurite outgrowth analysis (TUBB3 stain); assay type: cell-based, human; conditions: 10 μM
Procedure: (§1) ΔK280 TauRD-DsRed SH-SY5Y cells were plated in the presence of 10 μM retinoid acid (RA; Sigma-Aldrich) to promote neuronal differentiation. The next day, cells were added with congo red or ZN/VB compounds (2–10 μM) for 8 h pretreatment, followed by inducing ΔK280 TauRD-DsRed expression with doxycycline (2 μg/mL). On day 8, cell nuclei were stained with Hoechst 33342 (0.1 μg/mL; Thermo Scientific), and cell images acquired using ImageXpress Micro Confocal High-Content Imaging System (Molecular Devices, San Jose, CA, USA) with DAPI (4′,6-diamidino-2-phenylindole, for nuclei) and TRITC (tetramethylrhodamine, for DsRed) fluorescence filter sets. To detect ROS changes, 10 μM compound-treated cells were stained with Hoechst 33342 and 2′,7′-dichlorodihydrofluorescein diacetate (H2DCFDA, 10 μM) fluorescein (Invitrogen, Carlsbad, CA, USA), and cell images captured using DAPI and FITC (fluorescein isothiocyanate, for DCF) filters. For assessing differential neurite outgrowth, 10 μM compound-treated cells were fixed (paraformaldehyde, 4%), permeabilized (Triton X-100, 0.3%), and stained with class III β-tubulin (TUBB3, 1:1000) primary antibody (#802001, BioLegend, San Diego, CA, USA), followed by donkey anti-rabbit Alexa Fluor® 555 secondary antibody (1:1000; #A-31572, Invitrogen) and DAPI (0.1 μg/mL; Sigma-Aldrich) stains. The nuclei and neurite images were acquired with DAPI and TRITC fluorescence filters, respectively. All analyses of images were performed using MetaXpress software (Molecular Device).

[3] = Cell number / cell survival in induced ΔK280 TauRD-DsRed SH-SY5Y cells (high-content); assay type: cell-based, human; conditions: human; induced SH-SY5Y cells expressing ΔK280 TauRD-DsRed for 6 days, 2–10 μM tested; read-out: IC50 cytotoxicity based on cell number
Procedure: as §1

[4] = system: TRKB knockdown ΔK280 TauRD-DsRed SH-SY5Y cells; experiment: TRKB RNA interference: TRKB protein level and neurite outgrowth; assay type: cell-based, human; conditions: 10 μM
Procedure: as §1, with “For assessing differential neurite outgrowth, 10 μM compound-treated cells were fixed (paraformaldehyde, 4%), permeabilized (Triton X-100, 0.3%), and stained with class III β-tubulin (TUBB3, 1:1000) primary antibody (#802001, BioLegend, San Diego, CA, USA), followed by donkey anti-rabbit Alexa Fluor® 555 secondary antibody (1:1000; #A-31572, Invitrogen) and DAPI (0.1 μg/mL; Sigma-Aldrich) stains.” left out, “All analyses of images were performed using MetaXpress software (Molecular Device).” left out
Cells were collected and protein extracted as described. […] Protein signals were detected with chemiluminescent substrate (Millipore) using the ImageQuant™ LAS 4000 imager and analysis software (GE Healthcare, UK). […]

MTT cell viability assay = assay type: cell-based; conditions: human
Procedure: Human neuroblastoma SH-SY5Y cells with inducible ΔK280 TauRD-DsRed expression were maintained in DMEM/F-12 supplemented with fetal bovine serum (FBS, 10%) (Thermo Scientific, Waltham, MA, USA), penicillin/streptomycin (100 U/mL), selection antibiotics hygromycin (100 μg/mL) and blasticidin (5 μg/mL) (InvivoGen, San Diego, CA, USA), and 1.5 g/l sodium bicarbonate. Cells were cultured at 37 °C in a 5% CO2 atmosphere. The cell viability of ZN and VB compounds (concentration range: 0.1–100 μM) was evaluated by a 3-(4,5-dimethylthiazol-2-yl)-2,5-diphenyltetrazolium bromide (MTT; Sigma-Aldrich) colorimetric assay. The absorbance at 570 nm was recorded by a Multiskan™ GO Microplate Spectrophotometer (Thermo Scientific).

T1 sequence (P10636 with tags, fused parts or gaps isoform P10636-8 DEL280-280): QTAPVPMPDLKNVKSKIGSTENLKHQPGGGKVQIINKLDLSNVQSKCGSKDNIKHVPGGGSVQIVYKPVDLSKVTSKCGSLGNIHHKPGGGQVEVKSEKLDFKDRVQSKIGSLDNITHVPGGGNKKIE

O=C(/C=C/c1ccccc1O)c1c(O)c2ccccc2oc1=O [ZN-015, (E)-4-hydroxy-3-(3-(2-hydroxyphenyl)acryloyl)-2H-chromen-2-one]
EC50 [1]: 13.2 µM
neurite branch ([2]; induced untreated 0.74): 0.92
neurite process ([2]; induced untreated 2.07): 2.34
neurite length ([2]; induced untreated 30.6 μm): 40.7 μm
IC50 at 6 days [3]: 16 µM
neurite process ([4]; TRKB knockdown): 2.17
neurite process ([4]; scrambled shRNA): 2.35
IC50 at 24 h (MTT cell viability assay): 77 µM
